Activity calls are given as the source filed them. Bounds are passed on as bounds.

Usually EC50 stands for the concentration that produces a half-maximal response. Broadly, the AC50 is the concentration at which the activity in the assay is half-maximal.

Experiment [1] deals with Serine/threonine-protein phosphatase PP1-alpha catalytic subunit (Homo sapiens, UniProt P62136). In words: inhibition of protein phosphatase 1 activity – biochemical, fluorescence, dose response (AID 2394).
The target of experiment [2] is T1, Serine/threonine-protein phosphatase (Homo sapiens, UniProt Q9BPW0).
T1 sequence (Q9BPW0 whole entry): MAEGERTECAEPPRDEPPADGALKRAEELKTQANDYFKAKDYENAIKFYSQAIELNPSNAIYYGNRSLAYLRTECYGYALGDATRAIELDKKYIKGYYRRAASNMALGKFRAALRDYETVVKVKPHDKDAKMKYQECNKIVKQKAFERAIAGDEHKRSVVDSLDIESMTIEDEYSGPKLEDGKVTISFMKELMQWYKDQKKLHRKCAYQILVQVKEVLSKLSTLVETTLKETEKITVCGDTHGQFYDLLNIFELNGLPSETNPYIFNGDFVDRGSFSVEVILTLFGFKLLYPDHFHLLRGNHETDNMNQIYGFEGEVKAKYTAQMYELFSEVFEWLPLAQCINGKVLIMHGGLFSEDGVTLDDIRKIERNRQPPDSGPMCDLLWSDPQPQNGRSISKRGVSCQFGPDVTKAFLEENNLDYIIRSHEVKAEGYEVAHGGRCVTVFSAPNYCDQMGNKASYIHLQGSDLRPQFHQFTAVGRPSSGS
Nature of the experiment: inhibition of protein phosphatase 5 activity – biochemical, fluorescence, dose response (AID 2395).

Experiment [3] concerns the target T2, Apoptotic protease-activating factor 1 (Homo sapiens, UniProt O14727).
T2 sequence (O14727 whole entry): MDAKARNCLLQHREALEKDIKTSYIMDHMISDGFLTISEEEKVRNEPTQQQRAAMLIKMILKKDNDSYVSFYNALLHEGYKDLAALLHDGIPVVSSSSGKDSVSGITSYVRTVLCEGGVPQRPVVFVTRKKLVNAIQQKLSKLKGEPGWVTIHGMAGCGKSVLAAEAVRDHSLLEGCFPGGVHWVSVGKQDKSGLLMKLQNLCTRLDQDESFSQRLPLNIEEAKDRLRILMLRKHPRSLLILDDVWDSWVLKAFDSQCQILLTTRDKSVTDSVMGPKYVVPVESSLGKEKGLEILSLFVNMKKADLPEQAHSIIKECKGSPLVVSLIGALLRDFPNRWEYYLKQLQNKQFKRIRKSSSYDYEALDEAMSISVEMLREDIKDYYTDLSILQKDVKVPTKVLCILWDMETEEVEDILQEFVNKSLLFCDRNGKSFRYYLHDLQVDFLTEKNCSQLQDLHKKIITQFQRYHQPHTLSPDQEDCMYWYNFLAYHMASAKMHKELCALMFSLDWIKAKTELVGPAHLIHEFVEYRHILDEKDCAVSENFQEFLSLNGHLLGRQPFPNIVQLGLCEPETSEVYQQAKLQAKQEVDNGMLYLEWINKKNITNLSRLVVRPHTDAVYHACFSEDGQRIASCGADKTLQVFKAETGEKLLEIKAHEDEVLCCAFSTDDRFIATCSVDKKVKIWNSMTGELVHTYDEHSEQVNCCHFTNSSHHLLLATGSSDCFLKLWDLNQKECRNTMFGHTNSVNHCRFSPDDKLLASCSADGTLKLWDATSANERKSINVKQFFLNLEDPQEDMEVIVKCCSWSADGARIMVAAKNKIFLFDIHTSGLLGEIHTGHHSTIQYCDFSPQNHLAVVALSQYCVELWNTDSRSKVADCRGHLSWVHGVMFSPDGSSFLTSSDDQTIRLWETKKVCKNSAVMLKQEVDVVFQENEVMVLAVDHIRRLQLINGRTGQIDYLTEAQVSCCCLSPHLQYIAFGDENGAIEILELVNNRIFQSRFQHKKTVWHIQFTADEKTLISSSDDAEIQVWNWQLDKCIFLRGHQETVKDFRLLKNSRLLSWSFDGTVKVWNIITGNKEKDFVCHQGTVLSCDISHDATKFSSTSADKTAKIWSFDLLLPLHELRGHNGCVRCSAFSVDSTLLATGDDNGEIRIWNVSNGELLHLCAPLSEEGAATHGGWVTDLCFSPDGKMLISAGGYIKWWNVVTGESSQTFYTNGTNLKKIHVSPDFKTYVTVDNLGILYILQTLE
The experiment is classed as functional.

For another experiment, the target named is T3, Caspase-3 (Homo sapiens, UniProt P42574).
T3 sequence (P42574 whole entry): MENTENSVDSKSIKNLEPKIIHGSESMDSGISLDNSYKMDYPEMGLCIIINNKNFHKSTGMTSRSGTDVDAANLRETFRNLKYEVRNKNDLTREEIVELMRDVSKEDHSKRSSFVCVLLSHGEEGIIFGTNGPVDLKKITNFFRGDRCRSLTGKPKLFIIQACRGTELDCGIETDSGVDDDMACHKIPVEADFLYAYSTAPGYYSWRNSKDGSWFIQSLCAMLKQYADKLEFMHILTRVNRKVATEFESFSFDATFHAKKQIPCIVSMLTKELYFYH
In words: SAR Analysis of small molecule inhibitors of Sentrin-specific proteases (SENPs) using a Caspase-3 Selectivity assay. [Related pubchem assays (depositor defined):AID2540, AID2599, AID434973, AID489001]. It counts as functional.

Experiment [4] has as its system HEK293. Nature of the experiment: inhibition of NOD1-driven NF-kB reporter – cell-based, luminescence, uHTS, primary screen (AID 1578). The experiment is classed as functional. Conditions: Homo sapiens.
In experiment [5] the test system is HEK293. Nature of the experiment: cells. The experiment is classed as functional, cell-based. Conditions: Homo sapiens.
Another experiment relates to Streptococcus. Nature of the experiment: GAS UMAA2166 growth inhibition – luminescence, BacTiterGlo, counter-screen for streptokinase expression inhibitor project, dose response (AID 1915).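 Note: potency for reduction of bacterial viability or growth.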 The experiment is classed as functional, organism-based. (In general: A counterscreen serves to expose hits that act by an unwanted route or on another target.)
Experiment [6] deals with Heat shock protein HSP 90-alpha (Homo sapiens, UniProt P07900). It counts as functional, organism-based.
The target of experiment [7] is 5-hydroxytryptamine receptor 5A (Homo sapiens, UniProt P47898). In words: Counterscreen for agonists of OPRM1-OPRD1 heterodimerization: luminescence-based cell-based high throughput dose response assay to identify agonists of 5-hydroxytryptamine (serotonin) 5A receptor (HTR5A). [Related pubchem assays (depositor defined):AID504326, AID504355, AID504692, AID504904, AID504905]. It counts as functional.
Sequence of 5-hydroxytryptamine receptor 5A (P47898 whole entry): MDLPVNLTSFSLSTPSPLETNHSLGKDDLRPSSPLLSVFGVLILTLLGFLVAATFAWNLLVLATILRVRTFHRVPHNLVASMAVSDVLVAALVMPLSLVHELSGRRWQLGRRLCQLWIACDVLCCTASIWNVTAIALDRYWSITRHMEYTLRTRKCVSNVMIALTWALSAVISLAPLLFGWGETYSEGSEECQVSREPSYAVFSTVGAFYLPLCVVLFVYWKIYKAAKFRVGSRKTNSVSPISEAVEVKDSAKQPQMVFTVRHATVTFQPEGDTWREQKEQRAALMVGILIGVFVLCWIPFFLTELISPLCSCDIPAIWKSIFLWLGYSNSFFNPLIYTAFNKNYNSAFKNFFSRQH

The target of the next experiment is SUMO-activating enzyme (Homo sapiens, UniProt Q9UBT2). In words: blockers of SAE1/SAE2–UBC9 SUMO transfer – biochemical, HTRF, uHTS, primary screen (AID 2006). The experiment is classed as protein-complex assay. (TR-FRET usually uses a lanthanide donor and a delayed reading to cut background.)
Sequence of SUMO-activating enzyme (Q9UBE0 whole entry): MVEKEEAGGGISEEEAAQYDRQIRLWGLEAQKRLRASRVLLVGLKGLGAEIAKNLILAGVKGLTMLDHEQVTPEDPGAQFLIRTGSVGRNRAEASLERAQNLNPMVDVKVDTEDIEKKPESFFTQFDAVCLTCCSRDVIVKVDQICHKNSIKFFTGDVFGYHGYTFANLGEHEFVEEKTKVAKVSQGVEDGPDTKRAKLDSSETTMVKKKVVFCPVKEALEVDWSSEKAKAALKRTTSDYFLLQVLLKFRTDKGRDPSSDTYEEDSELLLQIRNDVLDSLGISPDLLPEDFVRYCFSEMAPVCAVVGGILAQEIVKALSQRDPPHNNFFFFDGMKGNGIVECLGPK
Sequence of SUMO-activating enzyme (Q9UBT2 whole entry): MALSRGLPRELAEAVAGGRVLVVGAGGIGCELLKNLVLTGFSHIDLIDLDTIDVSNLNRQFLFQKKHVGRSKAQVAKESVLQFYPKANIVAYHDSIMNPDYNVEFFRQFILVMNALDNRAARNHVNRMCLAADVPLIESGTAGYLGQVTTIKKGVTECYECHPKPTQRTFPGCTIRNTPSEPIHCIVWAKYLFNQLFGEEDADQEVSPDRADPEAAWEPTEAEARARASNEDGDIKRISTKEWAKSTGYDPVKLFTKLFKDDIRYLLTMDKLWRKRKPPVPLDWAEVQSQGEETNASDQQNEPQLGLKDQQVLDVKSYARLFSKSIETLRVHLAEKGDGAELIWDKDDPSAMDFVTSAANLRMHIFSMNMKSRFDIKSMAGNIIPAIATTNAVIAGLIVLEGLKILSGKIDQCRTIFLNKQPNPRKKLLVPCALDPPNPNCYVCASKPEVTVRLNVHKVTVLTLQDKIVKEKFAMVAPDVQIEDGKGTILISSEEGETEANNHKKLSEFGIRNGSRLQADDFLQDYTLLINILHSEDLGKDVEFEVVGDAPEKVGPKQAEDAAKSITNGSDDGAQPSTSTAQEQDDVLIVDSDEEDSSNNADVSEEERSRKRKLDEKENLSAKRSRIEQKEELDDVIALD
Another experiment has as its target SUMO E1/E2 (Homo sapiens, UniProt P63279+Q9UBE0+Q9UBT2). In words: SAR analysis of SUMOylation using HTRF in an in-Vitro dose response assay. [Related pubchem assays (depositor defined):AID2006, AID2011, AID2018, AID2069, AID2658]. The experiment is classed as functional.
For experiment [8], the target named is Polyadenylate-binding protein 1 (Homo sapiens, UniProt P11940). Nature of the experiment: MLLE binding blockers, Cy5 peptide tracer – biochemical, fluorescence polarization, Cy5-PAM2 peptide, secondary, miRNA deadenylation inhibitor project, dose response (AID 602260). It counts as functional. Conditions: read-out: IC50_Mean. (In general: Fluorescence polarisation rises when a labelled molecule tumbles more slowly, as on binding a larger partner.)
Sequence of Polyadenylate-binding protein 1 (P11940 whole entry): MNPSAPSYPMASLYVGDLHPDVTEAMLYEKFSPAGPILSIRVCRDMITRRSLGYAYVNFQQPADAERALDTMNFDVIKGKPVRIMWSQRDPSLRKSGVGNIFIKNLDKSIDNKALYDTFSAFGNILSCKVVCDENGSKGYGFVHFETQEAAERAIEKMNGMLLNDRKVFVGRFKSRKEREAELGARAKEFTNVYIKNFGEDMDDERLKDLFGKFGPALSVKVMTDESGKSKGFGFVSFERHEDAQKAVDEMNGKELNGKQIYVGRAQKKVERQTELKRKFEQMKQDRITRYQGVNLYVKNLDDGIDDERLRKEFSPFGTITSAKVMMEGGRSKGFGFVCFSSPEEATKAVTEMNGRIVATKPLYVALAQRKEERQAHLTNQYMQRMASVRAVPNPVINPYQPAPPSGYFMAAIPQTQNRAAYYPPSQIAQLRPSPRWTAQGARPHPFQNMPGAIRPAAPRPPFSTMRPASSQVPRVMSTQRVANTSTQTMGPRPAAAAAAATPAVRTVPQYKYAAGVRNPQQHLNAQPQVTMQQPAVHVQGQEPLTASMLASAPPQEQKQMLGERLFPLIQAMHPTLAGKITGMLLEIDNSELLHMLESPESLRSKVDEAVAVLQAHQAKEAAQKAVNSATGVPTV

Sequence of Serine/threonine-protein phosphatase PP1-alpha catalytic subunit (P62136 whole entry): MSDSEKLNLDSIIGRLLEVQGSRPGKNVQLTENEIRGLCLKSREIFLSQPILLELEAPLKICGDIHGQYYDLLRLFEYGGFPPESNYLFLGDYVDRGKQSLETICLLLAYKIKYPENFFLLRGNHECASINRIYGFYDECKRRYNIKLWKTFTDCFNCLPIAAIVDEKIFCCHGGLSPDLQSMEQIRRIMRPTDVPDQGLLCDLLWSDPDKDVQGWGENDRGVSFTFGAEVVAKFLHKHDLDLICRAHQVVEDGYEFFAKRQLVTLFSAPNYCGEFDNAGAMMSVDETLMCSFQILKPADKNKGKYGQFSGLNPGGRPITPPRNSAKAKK
Sequence of SUMO E1/E2 (Q9UBE0 whole entry): as the sequence (Q9UBE0 whole entry) above
Sequence of SUMO E1/E2 (Q9UBT2 whole entry): as the sequence (Q9UBT2 whole entry) above
Sequence of SUMO E1/E2 (P63279 whole entry): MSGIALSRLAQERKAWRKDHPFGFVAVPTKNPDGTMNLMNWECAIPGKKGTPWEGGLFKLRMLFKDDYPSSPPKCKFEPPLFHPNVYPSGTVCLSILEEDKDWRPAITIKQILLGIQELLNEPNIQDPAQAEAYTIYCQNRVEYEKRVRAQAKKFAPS

On to `Cc1ccc(C(=O)NNc2cc(N3CCCC3)nc(N3CCCC3)n2)cc1`, for which the IC50 in experiment [1] was 64 µM (not active); in experiment [2] it was 4.1 µM (active); in experiment [3], 5.08 µM (active); on Caspase-3, > 99 µM (inactive).

On to `Cc1cc(/C=C2\SC(=S)N(C)C2=O)c(C)n1-c1ccc(O)cc1`, for which the EC50 with HEK293 [4] was 9.47 µM (active); with Streptococcus it was 3.06 µM (active); in experiment [7] it was > 92.5 µM (inactive). In the experiment on HEK293 [5], the IC50 was 345 nM (active). For the same compound, the AC50 in experiment [6] was 8.02 µM (active).

On to `COC(=O)c1cccc(-c2ccc(C(c3c(C)n[nH]c3O)c3c(C)n[nH]c3O)o2)c1`, for which the IC50 at SUMO-activating enzyme and at SUMO E1/E2 was > 100 µM (inactive) each time.

Regarding `O=C1/C(=N\c2cccc(O)c2)C(N2CCCCC2)=C(O)c2ccccc21`, the IC50 is 4.03 µM (active) in experiment [3] and > 66 µM (inactive) in experiment [8].

The values are drawn from ChEMBL document CHEMBL1201862, “PubChem BioAssay data set” (2004).
